Positions of bridges follow the written chain, without caps; N, C: chain ends. Non-standard residues stand in square brackets, D forms with d. Residues, ends and D or L forms follow the SMILES beside them. *: point of attachment. Trp(7-Me) = Cc1cccc2c(C[C@H](N)C(=O)O)c[nH]c12; 2Nal = N[C@@H](Cc1ccc2ccccc2c1)C(=O)O; AEF = NCCOc1ccc(C[C@H](N)C(=O)O)cc1; αMeF = C[C@](N)(Cc1ccccc1)C(=O)O; Pen = CC(C)(S)[C@H](N)C(=O)O; Thp = NC1(C(=O)O)CCOCC1; Pentanoyl = CCCCC(=O)*; Boc = CC(C)(C)OC(=O)*; Propionyl = CCC(=O)*; X2 = c1c[nH]c(CN*)n1; X6 = c1cc(N*)n[nH]1
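Note: cryopreserved PBMCs stimulated at 37 °C in 5% CO2, then lysed, with phosphorylated STAT3 quantified in lysates using a phospho-STAT panel kit.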

The test deals with IL-23R (Homo sapiens, UniProt Q5VWK5). The test can be described thus: cell-based. As to conditions: PBMC pSTAT3 IC50 (nM), PBMCs from healthy donors, IL-23 5 ng/mL, 30 minutes, phosphorylated STAT3.
Chain of IL-23R (Q5VWK5 24-629): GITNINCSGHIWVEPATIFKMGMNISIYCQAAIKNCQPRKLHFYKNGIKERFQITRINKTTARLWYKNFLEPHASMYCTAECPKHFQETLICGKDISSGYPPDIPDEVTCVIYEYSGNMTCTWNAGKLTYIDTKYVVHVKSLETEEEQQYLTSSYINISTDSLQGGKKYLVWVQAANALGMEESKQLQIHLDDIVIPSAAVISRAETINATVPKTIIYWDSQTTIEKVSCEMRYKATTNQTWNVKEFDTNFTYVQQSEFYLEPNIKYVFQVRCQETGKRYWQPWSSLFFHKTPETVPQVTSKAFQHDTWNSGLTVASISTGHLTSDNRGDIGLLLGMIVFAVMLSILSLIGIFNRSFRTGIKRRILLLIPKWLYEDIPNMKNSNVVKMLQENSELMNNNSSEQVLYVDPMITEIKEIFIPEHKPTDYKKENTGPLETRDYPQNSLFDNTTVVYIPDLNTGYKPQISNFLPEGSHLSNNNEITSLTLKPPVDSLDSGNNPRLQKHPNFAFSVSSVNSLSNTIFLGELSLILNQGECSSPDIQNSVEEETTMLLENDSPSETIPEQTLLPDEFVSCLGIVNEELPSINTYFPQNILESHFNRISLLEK
One may read the IC50 as the point on the concentration scale where inhibition reaches its midpoint. Lower therefore signals higher potency. `CC(=O)NCCCC[C@@H]1NC(=O)[C@H](Cc2c[nH]c3c(C)cccc23)NC(=O)[C@H]([C@@H](C)O)NC(=O)[C@H](CC(N)=O)NC(=O)[C@@H](NC(C)=O)C(C)(C)SSC(C)(C)[C@@H](C(=O)N[C@@H](Cc2ccc(OCCN)cc2)C(=O)N[C@@H](Cc2ccc3ccccc3c2)C(=O)NC2(C(=O)N[C@@H](CCC(=O)O)C(=O)N[C@@H](CC(N)=O)C(=O)NC3(C(N)=O)CCOCC3)CC2)NC1=O` [Compound 317, MeCO-Pen-N-T-7MeW-K(Ac)-Pen-AEF-2Nal-Acpx-E-N-THP---CONH2]: the IC50 stood at 13 nM.

The compound `CC(=O)N[C@H](CCCNC(=N)N)C(=O)N[C@H]1CCSC[C@@H](C(=O)N[C@@H](Cc2ccc(OCCN)cc2)C(=O)N[C@@H](Cc2ccc3ccccc3c2)C(=O)NC2(C(=O)N[C@@H](CCC(=O)O)C(=O)N[C@@H](CC(N)=O)C(=O)N[C@@H](Cc3ccccc3)C(N)=O)CCOCC2)NC(=O)[C@H](CCC(N)=O)NC(=O)[C@H](Cc2c[nH]c3ccccc23)NC(=O)[C@H]([C@@H](C)O)NC(=O)[C@H](CCC(N)=O)NC1=O` [Compound 17, Ac-[(D)Arg]-[Abu]-Q-T-W-Q-[Cys]-Phe[4-(2-aminoethoxy)]-[2-Nal]-[THP]-E-N-F-NH2] gave an IC50 of 3.4 nM.

For the compound `CC(=O)N[C@H](CCCNC(=N)N)C(=O)N[C@@H]1C(=O)N[C@@H](CCC(N)=O)C(=O)N[C@@H]([C@@H](C)O)C(=O)N[C@@H](Cc2c[nH]c3ccccc23)C(=O)N[C@@H](CCC(N)=O)C(=O)N[C@H](C(=O)N[C@@H](Cc2ccc(OCCN)cc2)C(=O)N[C@@H](Cc2ccc3ccccc3c2)C(=O)NC2(C(=O)N[C@@H](CCC(=O)O)C(=O)N[C@@H](CC(N)=O)C(=O)N[C@@H](CC(=O)NCc3ncc[nH]3)C(N)=O)CCOCC2)C(C)(C)SSC1(C)C` [Compound 137, Ac-[(D)Arg]-[Pen]-Q-T-W-Q-[Pen]-Phe[4-(2-aminoethoxy)]-[2-Nal]-[THP]-E-N-[(N-(imidazol-2-yl)methyl)Asn]-NH2] (Ac-[dR][Pen]QTWQ[Pen][AEF][2Nal][Thp]END(X2)-NH2; disulfide 2-7), the IC50 was 14 nM. This IC50 is about 4.1-fold higher than that of the compound before.

Turning to `COc1ccc(C[C@H](NC(=O)[C@@H]2CSCC[C@H](NC(=O)[C@H](N)CCCNC(=N)N)C(=O)N[C@@H](CCC(N)=O)C(=O)N[C@@H]([C@@H](C)O)C(=O)N[C@@H](Cc3c[nH]c4ccccc34)C(=O)N[C@@H](CCC(N)=O)C(=O)N2)C(=O)N[C@@H](Cc2ccc3ccccc3c2)C(=O)NC2(C(=O)N[C@@H](CCC(=O)O)C(=O)N[C@@H](CC(N)=O)C(=O)NC3(C(N)=O)CCOCC3)CCOCC2)cc1` [Compound 22, [(D)Arg]-[Abu]-Q-T-W-Q-[Cys]-[Phe(4-OMe)]-[2-Nal]-[THP]-E-N-[THP]-NH2], the IC50 was determined as 22 nM. This IC50 is about 1.6-fold higher than that of the compound before.

On to `CC(=O)N[C@H](CCCNC(=N)N)C(=O)N[C@H]1CCSC[C@@H](C(=O)N[C@@H](Cc2ccc(OCCN)cc2)C(=O)N[C@@H](Cc2ccc3ccccc3c2)C(=O)NC2(C(=O)N[C@@](C)(CCC(=O)O)C(=O)N[C@@H](CC(N)=O)C(=O)N[C@@](C)(Cc3c[nH]c4ccccc34)C(N)=O)CCOCC2)NC(=O)[C@H](CCC(N)=O)NC(=O)[C@H](Cc2c[nH]c3ccccc23)NC(=O)[C@H]([C@@H](C)O)NC(=O)[C@H](CCC(N)=O)NC1=O` [Compound 31, Ac-[(D)Arg]-[Abu]-Q-T-W-Q-[Cys]-Phe[4-(2-aminoethoxy)]-[2-Nal]-[THP]-[aMeGlu]-N-ameW-NH2], for which the IC50 came out at 16 nM. This IC50 and that of the compound before are within 1.5-fold of each other.

`CC(=O)N[C@H](CCCNC(=N)N)C(=O)N[C@H]1CCSC[C@@H](C(=O)N[C@@H](Cc2ccc(OCCN)cc2)C(=O)N[C@@H](Cc2ccc3ccccc3c2)C(=O)NC2(C(=O)N[C@@](C)(CCC(=O)O)C(=O)N[C@@H](CC(N)=O)C(=O)N[C@@H](Cc3c[nH]c4ccc(F)cc34)C(N)=O)CCOCC2)NC(=O)[C@H](CCC(N)=O)NC(=O)[C@H](Cc2c[nH]c3ccccc23)NC(=O)[C@H]([C@@H](C)O)NC(=O)[C@H](CCC(N)=O)NC1=O` [Compound 81, Ac-[(D)Arg]-[Abu]-Q-T-W-Q-[Cys]-Phe[4-(2-aminoethoxy)]-[2-Nal]-[THP]-[aMeGlu]-N-[W(5-F)]-NH2] came in with an IC50 of 30 nM.

On to `CC(=O)NCCCC[C@@H]1NC(=O)[C@H](Cc2c[nH]c3c(C)cccc23)NC(=O)[C@H]([C@@H](C)O)NC(=O)[C@H](CC(N)=O)NC(=O)[C@@H](NC(=O)[C@H](N)CCCNC(=N)N)C(C)(C)SSC(C)(C)[C@@H](C(=O)N[C@@H](Cc2ccc(OCCNC(=O)OC(C)(C)C)cc2)C(=O)N[C@@H](Cc2ccc3ccccc3c2)C(=O)NC2(C(=O)N[C@@H](CCC(=O)O)C(=O)N[C@@H](CC(N)=O)C(=O)N[C@@](C)(Cc3ccccc3)C(N)=O)CCOCC2)NC1=O` [Compound 305, NH2-r-Pen-N-T-7MeW-K(Ac)-Pen-AEF(Boc)-2Nal-THP-E-N-aMePhe-CONH2] (H-[dR][Pen]NT[Trp(7-Me)]K(Ac)[Pen][AEF](Boc)[2Nal][Thp]EN[αMeF]-NH2; disulfide 2-7), for which the IC50 stood at 17 nM.

The compound `CCC(=O)N[C@H](CCCNC(=N)N)C(=O)N[C@@H]1C(=O)N[C@@H](CCC(N)=O)C(=O)N[C@@H]([C@@H](C)O)C(=O)N[C@@H](Cc2c[nH]c3ccccc23)C(=O)N[C@@H](CCC(N)=O)C(=O)N[C@H](C(=O)N[C@@H](Cc2ccc(OCCN)cc2)C(=O)N[C@@H](Cc2ccc3ccccc3c2)C(=O)NC2(C(=O)N[C@@H](CCC(=O)O)C(=O)N[C@@H](CC(N)=O)C(=O)NC3(C(N)=O)CCOCC3)CCOCC2)C(C)(C)SSC1(C)C` [Compound 10, [Propionic_acid]-[(D)Arg]-[Pen]-Q-T-W-Q-[Pen]-Phe[4-(2-aminoethoxy)]-[2-Nal]-[THP]-E-N-[THP]-NH2] (Propionyl-[dR][Pen]QTWQ[Pen][AEF][2Nal][Thp]EN[Thp]-NH2; disulfide 2-7) came in with an IC50 of 4.6 nM.

The compound `CCCCC(=O)N[C@H](CCCNC(=N)N)C(=O)N[C@@H]1C(=O)N[C@@H](CCC(N)=O)C(=O)N[C@@H]([C@@H](C)O)C(=O)N[C@@H](Cc2c[nH]c3ccccc23)C(=O)N[C@@H](CCC(N)=O)C(=O)N[C@H](C(=O)N[C@@H](Cc2ccc(OCCN)cc2)C(=O)N[C@@H](Cc2ccc3ccccc3c2)C(=O)NC2(C(=O)N[C@@H](CCC(=O)O)C(=O)N[C@@H](CC(N)=O)C(=O)NC3(C(N)=O)CCOCC3)CCOCC2)C(C)(C)SSC1(C)C` [Compound 9, [Pentanoic acid]-[(D)Arg]-[Pen]-Q-T-W-Q-[Pen]-Phe[4-(2-aminoethoxy)]-[2-Nal]-[THP]-E-N-[THP]-NH2] (Pentanoyl-[dR][Pen]QTWQ[Pen][AEF][2Nal][Thp]EN[Thp]-NH2; disulfide 2-7) returned an IC50 of 29 nM.

Compound `CC(=O)NCCCC[C@@H]1NC(=O)[C@H](Cc2c[nH]c3ccccc23)NC(=O)[C@H]([C@@H](C)O)NC(=O)[C@H](CC(N)=O)NC(=O)[C@@H](NC(=O)[C@@H](CCCNC(=N)N)NC(C)=O)C(C)(C)SSC(C)(C)[C@@H](C(=O)N[C@@H](Cc2ccc(OCCN)cc2)C(=O)N[C@@H](Cc2ccc3ccccc3c2)C(=O)NC2(C(=O)N[C@@H](CCC(=O)O)C(=O)N[C@@H](CC(N)=O)C(=O)NC3(C(N)=O)CCOCC3)CCOCC2)NC1=O` [Compound 105, Ac-[(D)Arg]-[Pen]-N-T-W-[Lys(Ac)]-[Pen]-Phe[4-(2-aminoethoxy)]-[2-Nal]-[THP]-E-N-[THP]-NH2] (Ac-[dR][Pen]NTWK(Ac)[Pen][AEF][2Nal][Thp]EN[Thp]-NH2; disulfide 2-7) had an IC50 of 2.2 nM.

For `CC(=O)N[C@H](CCCNC(=N)N)C(=O)N[C@@H]1C(=O)N[C@@H](CCC(N)=O)C(=O)N[C@@H]([C@@H](C)O)C(=O)N[C@@H](Cc2c[nH]c3ccccc23)C(=O)N[C@@H](CCC(N)=O)C(=O)N[C@H](C(=O)N[C@@H](Cc2ccc(OCCN)cc2)C(=O)N[C@@H](Cc2ccc3ccccc3c2)C(=O)NC2(C(=O)N[C@@H](CCC(=O)O)C(=O)N[C@@H](CC(N)=O)C(=O)N[C@@H](CC(=O)Nc3cc[nH]n3)C(N)=O)CCOCC2)C(C)(C)SSC1(C)C` [Compound 133, Ac-[(D)Arg]-[Pen]-Q-T-W-Q-[Pen]-Phe[4-(2-aminoethoxy)]-[2-Nal]-[THP]-E-N-[(N-(3-Pyz))Asn]-NH2] (Ac-[dR][Pen]QTWQ[Pen][AEF][2Nal][Thp]END(X6)-NH2; disulfide 2-7), the midpoint of inhibition, the IC50, lay at 21 nM. Compared with the last compound, the IC50 is about 9.5-fold higher.

Consider `CC(=O)N[C@H](CCCNC(=N)N)C(=O)N[C@H]1CCSC[C@@H](C(=O)N[C@@H](Cc2ccc(OCCN)cc2)C(=O)N[C@@H](Cc2ccc3ccccc3c2)C(=O)NC2(C(=O)N[C@@](C)(CCC(=O)O)C(=O)N[C@@H](CC(N)=O)C(=O)N[C@@H](Cc3ccc4ccccc4c3)C(N)=O)CCOCC2)NC(=O)[C@H](CCC(N)=O)NC(=O)[C@H](Cc2c[nH]c3ccccc23)NC(=O)[C@H]([C@@H](C)O)NC(=O)[C@H](CCC(N)=O)NC1=O` [Compound 35, Ac-[(D)Arg]-[Abu]-Q-T-W-Q-[Cys]-Phe[4-(2-aminoethoxy)]-[2-Nal]-[THP]-[aMeGlu]-N-[2-Nal]-NH2], for which inhibition was half-maximal at 25 nM (IC50). This IC50 and that of the compound before are within 1.5-fold of each other.

In the case of `CC(=O)NCCCC[C@@H]1NC(=O)[C@H](Cc2c[nH]c3c(C)cccc23)NC(=O)[C@H]([C@@H](C)O)NC(=O)[C@H](CC(N)=O)NC(=O)[C@@H](NC(=O)[C@@H](CCCNC(=N)N)NC(C)=O)C(C)(C)SSC(C)(C)[C@@H](C(=O)N[C@@H](Cc2ccc(OCCN)cc2)C(=O)N[C@@H](Cc2ccc3ccccc3c2)C(=O)NC2(C(=O)N[C@@H](CCC(=O)O)C(=O)N[C@@H](CC(N)=O)C(=O)N[C@@](C)(Cc3ccccc3)C(N)=O)CCOCC2)NC1=O` [Compound 124, Ac-[(D)Arg]-[Pen]-N-T-[W(7-Me)]-[Lys(Ac)]-[Pen]-Phe[4-(2-aminoethoxy)]-[2-Nal]-[THP]-E-N-[a-MePhe]-NH2] (Ac-[dR][Pen]NT[Trp(7-Me)]K(Ac)[Pen][AEF][2Nal][Thp]EN[αMeF]-NH2; disulfide 2-7), the IC50 came out at 11 nM.

Consider `CC(=O)NCCCC[C@@H]1NC(=O)[C@H](Cc2c[nH]c3c(C)cccc23)NC(=O)[C@H]([C@@H](C)O)NC(=O)[C@H](CC(N)=O)NC(=O)[C@@H](NC(C)=O)C(C)(C)SSC(C)(C)[C@@H](C(=O)N[C@@H](Cc2ccc(OCCN)cc2)C(=O)N[C@@H](Cc2ccc3ccccc3c2)C(=O)N[C@@](C)(CCCCN)C(=O)N[C@@H](CCCCNC(C)=O)C(=O)N[C@@H](CC(N)=O)C(=O)N[C@@](C)(Cc2ccccc2)C(N)=O)NC1=O` [Compound 76, Ac-[Pen]-N-T-[W(7-Me)]-[Lys(Ac)]-[Pen]-Phe[4-(2-aminoethoxy)]-[2-Nal]-[a-MeLys]-[Lys(Ac)]-N-[a-MePhe]-NH2], for which it took 11 nM to reach half-maximal inhibition (IC50).

For the origin of these results see US20240383954A1, “PEPTIDE INHIBITORS OF INTERLEUKIN-23 RECEPTOR AND THEIR USE TO TREAT INFLAMMATORY DISEASES” (Janssen Biotech, Inc., priority 2020, published 2024).
